Data set [1] in a line: Assessment of dynamic solubility. The settings on record: for pH of filtrate: 37° C. The data set is classed as physicochemical.
Data set [2] in a line: Assessment of 24-h solubility in pH buffers. The format is physicochemical. The conditions noted are these: room temperature; for FC: crystal transfer: Buffer (pH = 7.4); for solubility at 24 h: thermodynamic from solid, read-out: S: solubility, calculated as free form.
The procedure of data set [3]: A method for testing the density and the tapped density included: (1) a certain mass of to-be-assessed sample was placed into a 5 mL measuring cylinder, and the volume at this moment was recorded. The bulk density was calculated by dividing the mass of the sample by the volume at this moment. (2) The measuring cylinder was slightly tapped 200 times, the final volume was recorded, and the tapped density was calculated by dividing the mass of the sample by the final volume. (3) Three parallel tests were conducted. A method for testing the angle of repose included: (1) a funnel was fixed vertically to a bottom surface, and the material was slowly placed into the funnel. (2) A well-proportioned cone of the material was formed on the bottom surface. The height and bottom surface diameter of the cone were measured. (3) Three parallel tests were conducted.

Data set [4] can be described thus: Pharmacokinetics of hydrochloride crystal form A in Beagle dogs. The format is in vivo. The settings on record: single i.g. 6 mg/kg. As for the experimental part:
In this experiment, three male Beagle dogs were randomly selected for administration. All the animals were fasted for at least 12 h before administration and were fed again 4 h after administration. […] The blood samples from the animals were collected through the jugular vein, with a blood sample volume of 0.5 mL/time. All collected whole blood samples were placed in centrifuge tubes containing EDTA-K2, and the centrifuge tubes were turned upside down to allow the anticoagulant and blood to be fully mixed. All the blood samples were placed on wet ice before centrifugation and centrifuged at 1500 g for 10 min to separate plasma. The plasma samples were transferred to sample tubes and stored at -40° C. to […] until analysis. The drug concentration in the plasma of each Beagle dog was detected by an LC-MS/MS method.

On data set [5], the source says: DVS isotherms were collected on an SMS (Surface Measurement Systems) DVS Intrinsic.
This is another data set of the same source.

The source holds these as a separate data set.
Data set [6] is described as follows: TGA weight loss / thermal stability. The format is physicochemical. The settings on record: for thermal stability: comparison of TGA/DSC patterns; for TGA weight loss: heated to 150° C. An excerpt:
TGA and DSC patterns were collected on a TA Q5000 thermogravimetric analyzer and a TA Discovery 2500 differential scanning calorimeter, respectively.
TGA results were collected on a TA Discovery 5500 thermogravimetric analyzer, and DSC results were collected on a TA Discovery 2500 differential scanning calorimeter.

Where [7] appears, read: listed as hydrochloride crystal form A.
Where [8] appears, read: dog, plasma, po, male Beagle dogs, mean.
Where [9] appears, read: listed as phosphate crystal form A.

The term solubility denotes the concentration that dissolves in the medium under given conditions. By AUC(0-inf) is commonly meant total exposure, with the tail of the curve extrapolated. A low value points to low exposure. As usually defined, the AUC(0-t) is the area under the concentration-time curve up to a stated or last time point. A high value points to high exposure. As usually defined, the Cmax is the highest concentration seen after dosing. As a reminder, the Tmax is the time from dosing to the highest level. The half-life is the time in which the quantity being followed falls by half. A higher half-life goes with slow decline.

Counter-ions that a name gives are not always drawn. Like-named read-outs stand apart in the source and are kept apart here.

Turning to `CC[S@@](=N)(=O)C[C@H]1CC[C@H](N(C)c2ncnc3[nH]ccc23)CC1` [Hydrochloride crystal form A], the pH of filtrate in data set [1] (FaSSIF, 1 h) turned out to be 5.0; in data set [1] (FaSSIF, 4 h), 5.1; in data set [1] (FeSSIF, 2 h) it was 4.9; in data set [1] (FeSSIF, 4 h) it was 4.9; in data set [1] (H2O, 1 h), 4.0; in data set [1] (H2O, 2 h) it was 4.0. In addition, the pH of filtrate is listed as 4.0 in data set [1] (H2O, 4 h); 2.9 in data set [1] (SGF, 1 h); 3.0 in data set [1] (SGF, 4 h). Also, the solubility in data set [1] (H2O, SGF, FaSSIF and FeSSIF, 37 °C, water, thermodynamic from solid, in H2O, fully soluble) is greater than 9000 µg/mL. Further, the “FC: crystal transfer” value in data set [2] is reported as “Yes”; in data set [2] (setting [7]), “transformed into the free crystal form A”. For the same compound, the solubility at 24 h in data set [2] (buffer pH 2.0, pH 2, aqueous buffer, Buffer (pH = 2.0)) is greater than 9200 µg/mL; in data set [2] (buffer pH 4.5, pH 4.5, aqueous buffer, Buffer (pH = 4.5)) it was greater than 9200 µg/mL. The flowability result in data set [3] (conclusion from Carr index and angle of repose) is given as “high flowability”. Further, the Bulk density in data set [3] (single tests 1 to 3) worked out at 0.14 g/mL. The compound further came in with an Average bulk density in data set [3] (three parallel tests) of 0.14 g/mL. Moreover, the Average tapped density in data set [3] (three parallel tests, tapped 200 times) was 0.24 g/mL. In data set [4] (setting [8]), this compound returned an AUC(0-inf) of 32100 ng·h/mL. Besides, the AUC(0-t) in data set [4] (setting [8]) was found to be 31700 ng·h/mL. For the same compound, the Cmax in data set [4] (setting [8]) is 5290 ng/mL. Besides, the Tmax in data set [4] (setting [8]) is 0.417 h. Besides, in data set [4] (setting [8]), the half-life is 3.59 h. The MRT inf in data set [4] (dog, plasma, po, male Beagle dogs, mean, read-out: MRT0-inf) is 5.11 h. Also, the MRT last in data set [4] (dog, plasma, po, male Beagle dogs, mean, read-out: MRT0-t) turned out to be 4.84 h. Moreover, the clinical observation entry in data set [4] was “no obvious abnormalities were found”. For the same compound, in data set [5] (25° C./80% RH), the hygroscopicity result was “slight hygroscopicity”. For the same compound, the “Crystal transformation after DVS” value in data set [5] (XRPD before and after DVS) is given as “No”. Besides, the “UPLC peak Area, RRT 1.62” value by setting is: (25° C./60% RH/4 weeks) 0.05%; (40° C./75% RH/4 weeks) 0.05%; (80° C./1 d) 0.05%; (Starting) 0.05%. For the same compound, the “UPLC peak Area, RRT 2.10” value (25° C./60% RH/4 weeks) is 0.07%; the “UPLC peak Area, RRT 2.10” value (40° C./75% RH/4 weeks) stood at 0.07%; the “UPLC peak Area, RRT 2.10” value (80° C./1 d) is 0.08%; the “UPLC peak Area, RRT 2.10” value (Starting) was determined as 0.08%. For the same compound, the “UPLC peak Area, RRT 2.19” value by setting is: (25° C./60% RH/4 weeks) less than 0.05%; (40° C./75% RH/4 weeks) less than 0.05%; (80° C./1 d) less than 0.05%; (Starting) 0.06%. For the same compound, the “Crystal form Transform” value (25° C./60% RH/4 weeks, open) was “No”; the “Crystal form Transform” value (40° C./75% RH/4 weeks, open) was “No”; the “Crystal form Transform” value (80° C./1 d, closed) is on record as “No”. Besides, the “UPLC peak Area, RRT 1.00” value (40° C./75% RH/4 weeks) is listed as 99.88% and the “UPLC peak Area, RRT 1.00” value (Starting) was found to be 99.82%. The Purity is given as 99.88 area % (40° C./75% RH/4 weeks, open) and 99.87 area % (80° C./1 d, closed). For the same compound, the Starting purity (before storage, UPLC) was 99.82 area %. In addition, in data set [6], the thermal stability result was “high”. For the same compound, the TGA weight loss in data set [6] (listed as Hydrochloride Crystal Form A) and in data set [6] (setting [7]) was 0.53% in each case.

As for `CC[S@@](=N)(=O)C[C@H]1CC[C@H](N(C)c2ncnc3[nH]ccc23)CC1` [Sulfate crystal form A], the thermal stability entry in data set [6] (listed as sulfate crystal form A) is “poor thermal stability”. Moreover, in data set [6] (heated to 100° C.), the “TGA stepwise weight loss” value worked out at 14.83%.

With `CC[S@@](=N)(=O)C[C@H]1CC[C@H](N(C)c2ncnc3[nH]ccc23)CC1` [Phosphate crystal form A], in data set [6] (setting [9]), the thermal stability result is listed as “slightly poor thermal stability” and the TGA weight loss is given as 2.82%. Further, in data set [6] (listed as Phosphate Crystal Form A), the TGA weight loss is on record as 2.82%.
